Reference: US20010044445A1, “AZOLE INHIBITORS OF CYTOKINE PRODUCTION” (priority 1999, published 2001)

System: Human peripheral blood mononuclear cells
Assay: Human Concanavalin-A Proliferation Assay (Con HU Assay)
Type: cell-based
Settings: concanavalin-A stimulated human PBMC; for IC50: tritiated thymidine; for inhibition at 100 µM / inhibition at 10 µM / inhibition at 1 µM: 72 h, read-out: % Inhibition of proliferation (at concentrations of 1,10, or 100 μm); for inhibition at 100 µM: concentration 100 μm (in parentheses in the cell); for inhibition at 100 µM / inhibition at 10 µM / inhibition at 1 µM / % Inhibition of proliferation (at concentrations of 1,10, or 100 μm): 3 days
Method: Human peripheral blood mononuclear cells were cultured in RPMI 1640 medium supplemented with 10 μg/ml gentamicin, 50 μM 2-mercaptoethanol, 1X MEM non-essential amino acids (Sigma Chemical Co., St. Louis, Mo.), 100 U/ml sodium penicillin G, 100 μg/ml streptomycin sulfate, 2 mM L-glutamine, 1 mM sodium pyruvate (Life Technologies, Grand Island, N.Y.) and 10% fetal bovine serum (Hyclone, Logan, Utah) at 37° C. with 5% CO2.
The procedure in Current Protocols in Immunology, Volume 1, Published by the Greene Publishing Associates and John Wiley & Sons, Inc, Edited by Richard Coico, 1994, hereby incorporated by reference, was followed. Briefly, 50 ml of blood from human volunteers was collected in heparinized syringes and mixed. Blood was diluted 1:1 in Dulbecco's phosphate buffered saline (D-PBS) (Life Technologies, Grand Island, N.Y.) and mixed. PBS-blood mixture was overlaid into 50 ml centrifuge tubes containing 15 ml Histopaque 1077 (Sigma Chemical Co., St. Louis, Mo.) and centrifuged at 500 X G for 30 minutes at room temperature. Cells at the interface from each Histopaque tube were removed and mixed with 5 ml of D-PBS. Each cell suspension was diluted to 50 ml with D-PBS, mixed and centrifuged at 400 X G for 15 minutes at room temperature. After most of the supernatant was removed, cells were resuspended to 40 ml with D-PBS per tube (2 tubes per donor). Cells were centrifuged at 400 X G for 10 minutes at room temperature. Pellets were resuspended in 10 ml of supplemented RPMI 1640 and cell number determined with a Coulter counter. Cells were diluted to a concentration of 0.5×10^6 cells per mL.
The procedure in Current Protocols in Immunology, Volume 1, Published by the Greene Publishing Associates and John Wiley & Sons, Inc, Edited by Richard Coico, 1994, hereby incorporated by reference, was followed. Briefly, test compounds were added to appropriate wells on 96-well tissue culture plates (Corning Glass Works, Corning, N.Y.) in 20 µl of supplemented RPMI 1640. Human peripheral blood mononuclear cells were added to each well in 100 μl volumes (final cell concentration equal to 50,000 cells per well). After 15 minutes, 100 μl of 5 μg/ml concanavalin-A (Sigma Chemical Co., St. Louis, Mo.) in supplemented RPMI 1640 was added to a final concentration of 2.5 μg/ml. Plates were incubated for 3 days at 37° C. with 5% CO2. On day 3, plates were pulsed with 0.5 μCi/well tritiated thymidine (New England Nuclear, Boston, Mass.). After 6 hours, plates were harvested on a Tomatec 96-well havester (Orange, Conn.). Glass filter mats were counted on a Matrix 9600 direct beta counter (Packard, Meriden, Conn.).

[1] = Homo sapiens, PBMC, concentration 10 μm (in parentheses in the cell)
[2] = Homo sapiens, PBMC, concentration 1 μm (in parentheses in the cell)
[3] = concentration 10 μm (in parentheses in the cell)
[4] = concentration 1 μm (in parentheses in the cell)

Row | SMILES | IC50 (Homo sapiens, PBMC) [nM] | other results
1 | O=C(Nc1ccc(-n2nc(-c3cncc(Br)c3)cc2OC(F)F)cc1)c1ccncc1F [Example 339, N-(4-(3-(5-bromo-3-pyridinyl)-5-(difluoromethoxy)-1H-pyrazol-1-yl)phenyl)-3-fluoroisonicotinamide] | 369 | –
2 | N#Cc1cc(C(F)(F)F)nn1-c1ccc(NC(=O)c2ccccc2F)cc1 [Example 300, N-{4-[5-cyano-3-(trifluoromethyl)-1H-pyrazol-1-yl]phenyl}-2-fluorobenzamide] | 79 | –
3 | Cc1cc(C(F)(F)F)nn1-c1ccc(NC(=O)c2ccc(Cl)cc2)cc1 [Example 281, 4-chloro-N-[4-[5-methyl-3-(trifluoromethyl)-1H-pyrazol-1-yl]phenyl]benzamide] | 1060 | inhibition at 100 µM (Homo sapiens, PBMC): 94%
4 | NCc1ccc(C(=O)Nc2ccc(-n3nc(C(F)(F)F)cc3C(F)(F)F)cc2)c(Cl)c1 [Example 294, 4-(aminomethyl)-N-(4-(3,5-bis(trifluoromethyl)-1H-pyrazol-1-yl)phenyl)-2-chlorobenzamide] | 299 | –
5 | O=C(Nc1ccc(-n2nc(C(F)(F)F)cc2C(F)(F)F)cc1)c1ccc(Br)cc1Cl [Example 217, N-[4-[3,5-bis(trifluoromethyl)-1H-pyrazol-1-yl]phenyl]-4-bromo-2-chlorobenzamide] | 218 | inhibition at 10 µM [1]: 100%
6 | O=C(Nc1ccc(-n2nc(C(F)(F)F)cc2C(F)(F)F)cc1)c1c(F)c(F)c(Br)c(F)c1F [Example 236, N-[4-[3,5-bis(trifluoromethyl)-1H-pyrazol-1-yl]phenyl]-4-bromo-2,3,5,6-tetrafluorobenzamide] | 180 | inhibition at 10 µM [1]: 100%
7 | O=C(Nc1ccc(-n2nc(C(F)(F)F)cc2C(F)(F)F)cc1)c1ccc(Br)o1 [Example 251, N-[4-[3,5-bis(trifluoromethyl)-1H-pyrazol-1-yl]phenyl]-5-bromo-2-furancarboxamide] | – | inhibition at 1 µM [2]: 50%
8 | CN(C(=O)c1ccccc1Cl)c1ccc(-n2nc(C(F)(F)F)cc2C(F)(F)F)cc1 [Example 80, N-[4-[3,5-bis(trifluoromethyl)-1H-pyrazol-1-yl]phenyl]-2-chloro-N-methylbenzamide] | – | inhibition at 1 µM [2]: 43%
9 | N#Cc1cc(C2CCCO2)nn1-c1ccc(NC(=O)c2ccncc2F)cc1 (stereo not shown) [Example 357, N-(4-(5-cyano-3-tetrahydro-2-furanyl-1H-pyrazol-1-yl)phenyl)-3-fluoroisonicotinamide] | 1860 | –
10 | O=C(Nc1ccc(-n2nc(C(F)(F)F)cc2C(F)(F)F)cc1)c1ccc(O)c(Br)c1 [Example 222] | – | IC50: 760 nM; % Inhibition of proliferation (at concentrations of 1,10, or 100 μm) [3]: 100(10) %
11 | N#Cc1cc(-c2ccccn2)nn1-c1ccc(NC(=O)c2ccncc2F)cc1 [Example 330, N-(4-(5-cyano-3-(2-pyridinyl)-1H-pyrazol-1-yl)phenyl)-3-fluoroisonicotinamide] | 169 | –
12 | CN(C)c1ccccc1C(=O)Nc1ccc(-n2nc(C(F)(F)F)cc2C(F)(F)F)cc1 [Example 86, N-[4-[3,5-bis(trifluoromethyl)-1H-pyrazol-1-yl]phenyl]-2-(dimethylamino)benzamide] | – | inhibition at 1 µM [2]: 33%
13 | CN(C(=O)c1ccc([N+](=O)[O-])cc1Cl)c1ccc(-n2nc(C(F)(F)F)cc2C(F)(F)F)cc1 [Example 81, N-[4-[3,5-bis(trifluoromethyl)-1H-pyrazol-1-yl]phenyl]-2-chloro-4-nitro-N-methylbenzamide] | – | inhibition at 1 µM [2]: 30%
14 | CC(=O)Nc1ccc(-n2nc(C(F)(F)F)cc2C(F)(F)F)cc1 [Example 156] | – | % Inhibition of proliferation (at concentrations of 1,10, or 100 μm) [4]: 16(1) %
15 | CCCC(=O)Nc1ccc(-n2nc(C(F)(F)F)cc2C(F)(F)F)cc1 [Example 175, N-[4-[3,5-Bis(trifluoromethyl)-1H-pyrazol-1-yl]phenyl]butanamide] | 562 | inhibition at 100 µM (Homo sapiens, PBMC): 100%
16 | COC(=O)c1cc(NC(=O)c2ccccc2F)ccc1-n1nc(C(F)(F)F)cc1C(F)(F)F [Example 293, methyl 2-(3,5-bis(trifluoromethyl)-1H-pyrazol-1-yl)-5-((2-fluorobenzoyl)amino)benzoate] | 409 | –
17 | O=C(CCCC[C@@H]1SC[C@@H]2NC(=O)N[C@@H]21)Nc1ccc(-n2nc(C(F)(F)F)cc2C(F)(F)F)cc1 [Example 23, 3a(S)-(3aα,4β,6aα)-N-[4-[3,5-bis(trifluoromethyl)-1H-pyrazol-1-yl]phenyl]hexahydro-2-oxo-1H-thieno[3,4-d]limidazole-4-pentanamide] | – | % Inhibition of proliferation (at concentrations of 1,10, or 100 μm) [4]: 4(1) %
18 | Cn1cccc1-c1cc(OC(F)F)n(-c2ccc(NC(=O)c3ccncc3F)cc2)n1 [Example 360, N-(4-(5-(difluoromethoxy)-3-(1-methyl-1H-pyrrol-2-yl)-1H-pyrazol-1-yl)phenyl)-3-fluoroisonicotinamide] | 329 | –
19 | O=C(Nc1ccc(-n2nc(C(F)(F)F)cc2OC(F)F)cc1)c1ccncc1 [Example 322, N-(4-(5-(difluoromethoxy)-3-(trifluoromethyl)-1H-pyrazol-1-yl)phenyl)isonicotinamide] | 238 | –
20 | O=C(Nc1ccc(-n2nc(C(F)(F)F)cc2-c2cccs2)cc1)c1ccccc1F [Example 308, 2-fluoro-N-(4-(5-(2-thienyl)-3-(trifluoromethyl)-1H-pyrazol-1-yl)phenyl)benzamide] | 309 | –
21 | N#Cc1cc(NC(=O)c2ccccc2F)ccc1-n1nc(C(F)(F)F)cc1C(F)(F)F [Example 299, N-(4-(3,5-bis(trifluoromethyl)-1H-pyrazol-1-yl)-3-cyanophenyl)-2-fluorobenzamide] | 269 | –
22 | CC(C)(C)OC(=O)N1CCC(C(=O)Nc2ccc(-n3nc(C(F)(F)F)cc3C(F)(F)F)cc2)CC1 [Example 120, 1,1-Dimethylethyl 4-[[[4-[3,5-bis(trifluoromethyl)-1H-pyrazol-1-yl]phenyl]amino]carbonyl]-1-piperidinecarboxylate] | 488 | inhibition at 100 µM (Homo sapiens, PBMC): 100%
23 | O=C(Nc1ccc(-n2nc(-c3cccnc3)cc2[N+](=O)[O-])cc1)c1ccncc1F [Example 334, 3-fluoro-N-{4-[5-nitro-3-(3-pyridinyl)-1H-pyrazol-1-yl]phenyl}isonicotinamide] | 297 | –
24 | N#Cc1cc(-c2nccs2)nn1-c1ccc(NC(=O)c2ccncc2F)cc1 [Example 338, N-(4-(5-cyano-3-(1,3-thiazol-2-yl)-1H-pyrazol-1-yl)phenyl)-3-fluoroisonicotinamide] | 164 | –
25 | O=C(Nc1ccc(-n2nc(C(F)(F)F)cc2C(F)(F)F)cc1)c1cnccn1 [Example 172, N-[4-[3,5-Bis(trifluoromethyl)-1H-pyrazol-1-yl]phenyl]pyazinecarboxamide] | – | % Inhibition of proliferation (at concentrations of 1,10, or 100 μm) [4]: 48(1) %
26 | COc1cc(SC)ccc1C(=O)Nc1ccc(-n2nc(C(F)(F)F)cc2C(F)(F)F)cc1 [Example 179, N-[4-[3,5-bis(trifluoromethyl)-1H-pyrazol-1-yl]phenyl]-2-methoxy-4-(methythio)benzamide] | – | IC50: 8870 nM; % Inhibition of proliferation (at concentrations of 1,10, or 100 μm) [3]: 47(10) %
27 | O=C(Nc1ccc(-n2nc(-c3cccnc3)cc2C(F)F)cc1)c1ccncc1F [Example 329, N-(4-(5-(difluoromethyl)-3-(3-pyridinyl)-1H-pyrazol-1-yl)phenyl)-3-fluoroisonicotinamide] | 303 | –
28 | CNC(=O)c1ccccc1C(=O)Nc1ccc(-n2nc(C(F)(F)F)cc2C(F)(F)F)cc1 [Example 115, N-[4-[3,5-bis(trifluoromethyl)-1H-pyrazol-1-yl]phenyl]-N′-methyl-1,2-benzenedicarboxamide] | 51300 | inhibition at 100 µM (Homo sapiens, PBMC): 71%
29 | CCN(CC)c1ccc(C(=O)Nc2ccc(-n3nc(C(F)(F)F)cc3C(F)(F)F)cc2)cc1 [Example 122, N-[4-[3,5-bis(trifluoromethyl)-1H-pyrazol-1-yl]phenyl]-4-(diethylamino)benzamide] | – | inhibition at 1 µM [2]: 15%
